{"source": "patent US20250032488A1", "about": "“METHODS OF TREATMENT USING LOU064” (NOVARTIS AG, priority 2021, published 2025)", "key": {"[1]": {"test": "Concentrations of LOU064 in blood, PCA study", "format": "in vivo, mice", "conditions": "BALB/c, mouse, whole blood, oral, 2.5 hours after second dose, low-dose IgE sensitization, Mean ± SD (n = 5)", "experimental": "(§1) LOU064 was tested in a murine PCA model. The model used BALB/c mice aged 8-10 weeks of age. For passive sensitization with hapten-specific IgE, mice under isoflurane anesthesia were given an intradermal injection of 20 μl anti-DNP IgE in saline into the right ear and 20 μl of saline into the left ear. For FccR-specific PCA, mice were given a low dose of 3 ng anti-DNP IgE. For maximal PCA mice were given a high dose of 25 ng anti-DNP IgE. LOU064 was administered p.o. in a volume of 5 ml/kg body weight. A first dose was administered 4 hours after sensitization on the evening before challenge. The next morning, 2 hours prior to hapten challenge, mice were given a second oral dose of LOU064.\nMice were challenged with hapten 2 hours after the second dose by placing them into a heated chamber. Animals were then injected i.v. with 100 μg of the hapten DNP-HSA (dinitrophenyl-human serum albumin) in 200 μl of 2% Evans blue diluted in PBS. The mice were then returned to their cage for exactly 30 minutes. Thirty minutes later, animals were then anesthetized with isoflurane and bled retro-orbitally using EDTA coated blood collection tubes for analysis of compound exposure. The mice were then sacrificed by cervical dislocation. A 6 mm punch biopsy was taken from both the left and the right ear and placed into 100 μl of formalin. The skin biopsies were incubated at 80° C. overnight to extract the dye. Twenty-four hours later 80 μl of formalin solution were transferred to a clear flat bottom 96 well plate and the optical absorption was read at 620 nm. Analysis was performed by subtracting the left ear (saline) from the right ear (IgE) to determine how much dye was released into the skin tissue of the biopsy. Statistical significance was determined by ANOVA. Spleens were removed for BTK occupancy analysis.\nAnalysis of blood level: Blood samples were taken as denoted and compound measurement was performed. Blood samples were spiked with a structurally similar internal standard mixed with acetonitrile (4 volumes) and centrifuged at ˜ 4000 rpm (4° C.). Supernatant was then transferred into a microtiter plate. An aliquot of each sample was injected into an LC-MS/MS system for determination of concentrations of the parent molecule.\nThe concentrations of LOU064 present in mouse blood, 2.5 hours after the second compound dose are shown for the low-dose IgE sensitization in Table 1."}, "BALB/c mice": {"tested_on": "BALB/c mice", "test": "Passive cutaneous anaphylaxis (PCA) in mice: skin edema", "format": "in vivo", "conditions": "doses as low as 3 mg/kg, two oral administrations", "experimental": "as §1\nMice were challenged with hapten 2 hours after the second dose by placing them into a heated chamber. Animals were then injected i.v. with 100 μg of the hapten DNP-HSA (dinitrophenyl-human serum albumin) in 200 μl of 2% Evans blue diluted in PBS. The mice were then returned to their cage for exactly 30 minutes. Thirty minutes later, animals were then anesthetized with isoflurane and bled retro-orbitally using EDTA coated blood collection tubes for analysis of compound exposure. […] Twenty-four hours later 80 μl of formalin solution were transferred to a clear flat bottom 96 well plate and the optical absorption was read at 620 nm. […] Statistical significance was determined by ANOVA. […]"}, "BTK": {"target": "T1, BTK (Mus musculus, UniProt P35991)", "T1 construct": "each spleen was crushed and lysed in a GentleMACS; from tissue; host or cells: mouse spleen (BALB/c, C57Bl6) and lung (C57Bl6)", "T1 sequence (P35991 whole entry)": "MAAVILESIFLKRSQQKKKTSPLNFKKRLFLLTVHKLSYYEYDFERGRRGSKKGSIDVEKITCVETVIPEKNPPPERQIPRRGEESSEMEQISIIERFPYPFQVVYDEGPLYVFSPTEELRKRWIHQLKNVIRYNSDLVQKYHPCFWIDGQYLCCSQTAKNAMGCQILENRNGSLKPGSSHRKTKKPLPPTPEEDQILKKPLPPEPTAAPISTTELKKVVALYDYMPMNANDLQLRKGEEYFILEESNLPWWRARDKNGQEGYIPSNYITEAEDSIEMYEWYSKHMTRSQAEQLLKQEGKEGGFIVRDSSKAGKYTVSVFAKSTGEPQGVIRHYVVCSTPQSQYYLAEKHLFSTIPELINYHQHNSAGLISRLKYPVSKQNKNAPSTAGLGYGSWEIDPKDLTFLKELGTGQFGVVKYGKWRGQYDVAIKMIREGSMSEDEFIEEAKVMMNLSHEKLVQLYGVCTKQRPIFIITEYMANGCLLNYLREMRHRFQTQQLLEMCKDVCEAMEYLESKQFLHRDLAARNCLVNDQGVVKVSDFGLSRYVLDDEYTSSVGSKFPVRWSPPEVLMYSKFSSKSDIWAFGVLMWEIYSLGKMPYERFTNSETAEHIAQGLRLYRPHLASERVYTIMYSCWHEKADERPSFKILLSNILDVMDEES", "test": "BTK occupancy in spleen and lung, RPA study", "format": "in vivo, mice", "conditions": "single dose 30 mg/kg, 3 hours after eliciting the Arthus reaction", "experimental": "For BTK occupancy in spleen, the experiment was performed as described in the PCA example. For lung BTK occupancy, lysates were prepared from complete lungs including tracheas after perfusing the organs with saline to remove blood in the same manner as for spleen (except that the lysis buffer volume was 500 μl). The lung lysates were then analyzed for free BTK in a separate ELISA. This consisted of a capture step with anti-BTK (Cell Signaling Technologies, #8547, carrier free). Then the captured BTK protein was incubated with 1 μM of covalent biotinylated BTK probe for 1 hour at room temperature. The BTK-bound biotinylated probe was detected by with a streptavidin-HRP conjugate (Cell Signaling Technologies, #3999, used at a dilution of 1:1′000) and a chemiluminescence substrate (Supersignal ELISA Pico, Thermo Scientific, #37070). The luminescence values were corrected for ELISA background reads from control samples measured in absence of BTK capture antibody for the total BTK ELISA and in absence of probe for the BTK-bound ELISA, respectively. The relative BTK occupancy was calculated as the ratio of free BTK (signal of the covalent biotinylated probe bound BTK) to total BTK for each sample: R=free BTK/total BTK. The individual Ri values were then normalized to the vehicle group and expressed as percent occupancy: (average of Ri vehicle group−Ri)/(average of Ri vehicle group)*100%."}, "patients with CSU": {"tested_on": "patients with CSU", "test": "Phase 2b core study in CSU: safety", "format": "in vivo, human"}, "PBMC-derived mast cells": {"tested_on": "PBMC-derived mast cells", "test": "FcER-induced degranulation of PBMC-derived mast cells", "format": "cell-based", "conditions": "Homo sapiens, Mast cell; n=7 donors; read-out: IC50, degranulation of primary human PBMC-derived mast cells (β-tryptase)", "text": "cells (PBMC)-derived mast cells Rationale and method: Primary human mast cells were derived from CD34-positive progenitor cells isolated from PBMC ((Neuberger, M.S. et al. (1985), Nature 314 (6008), pp 268-70. doi: 10.1038/314268a0). Blood from healthy volunteers was provided under informed consent and collected through the Novartis Tissue Donor Program in accordance with the Swiss Human Research Act and approval of the responsible ethic committee (Ethikkommission Nordwest-und Zentralschweiz). Briefly, CD34-positive cells were isolated from peripheral blood by positive selection and cultured in medium containing SCF, IL-6 and IL-3. After a 6 week differentiation culture, mast cells were harvested and characterized phenotypically for expression of c-Kit (CD117) and FcERI. The degranulation is based on NIP haptenized BSA and the NIP-specific chimeric IgE antibody JW8 (described in RD-2013-00412). The mast cells were sensitized with JW8 IgE antibody and then incubated with serial compound dilutions for 30 minutes at 37° C. Then degranulation was triggered by adding haptenized NIP-BSA to crosslink the FcER. After one hour, supernatants were collected and analyzed for β-tryptase levels."}, "[2]": {"conditions": "Core study, Any dose, N = 267, listed as remibrutinib"}}}
{"smiles": "C=CC(=O)N(C)CCOc1c(N)ncnc1-c1cc(F)cc(NC(=O)c2ccc(C3CC3)cc2F)c1C", "note": "[LOU064, N-(3-(6-amino-5-(2-(N-methylacrylamido)ethoxy)pyrimidin-4-yl)-5-fluoro-2-methylphenyl)-4-cyclopropyl-2-fluorobenzamide]", "values": [{"measurement": "concentration at 2.5 h", "setting": "[1]; 3 mg/Kg p.o.", "value": "7 ± 2", "unit": "nM"}, {"measurement": "concentration at 2.5 h", "setting": "[1]; 10 mg/Kg p.o.", "value": "35 ± 14", "unit": "nM"}, {"measurement": "concentration at 2.5 h", "setting": "[1]; 30 mg/Kg p.o.", "value": "111 ± 56", "unit": "nM"}, {"measurement": "concentration at 2.5 h", "setting": "[1]; 100 mg/Kg p.o.", "value": "488 ± 371", "unit": "nM"}, {"measurement": "Inhibition of the anaphylactic response (PCA)", "setting": "BALB/c mice", "value": "near complete inhibition"}, {"measurement": "BTK occupancy kinetic in spleen and lung compared to effect on skin swelling", "setting": "BTK", "value": "very similar kinetic"}, {"measurement": "Patients with newly occurring ALT>5xULN", "setting": "patients with CSU; CS, normalised on treatment", "value": 1, "unit": "patient"}, {"measurement": "Patients with ≥1 AE", "setting": "patients with CSU; Core study, 10 mg b.i.d., N = 44", "value": 21, "unit": "n"}, {"measurement": "Patients with ≥1 AE", "setting": "patients with CSU; Core study, 10 mg q.d., N = 44", "value": 29, "unit": "n"}, {"measurement": "Patients with ≥1 AE", "setting": "patients with CSU; Core study, 25 mg b.i.d., N = 43", "value": 26, "unit": "n"}, {"measurement": "Patients with ≥1 AE", "setting": "patients with CSU; Core study, 35 mg q.d., N = 44", "value": 23, "unit": "n"}, {"measurement": "Patients with ≥1 AE", "setting": "patients with CSU; Core study, 100 mg b.i.d., N = 45", "value": 29, "unit": "n"}, {"measurement": "Patients with ≥1 AE", "setting": "patients with CSU; Core study, 100 mg q.d., N = 47", "value": 27, "unit": "n"}, {"measurement": "Headache (AEs by PT)", "setting": "patients with CSU; [2]", "value": 9.7, "unit": "%"}, {"measurement": "Infections and infestations (AEs by primary system organ class)", "setting": "patients with CSU; [2]", "value": 24.0, "unit": "%"}, {"measurement": "Skin and subcutaneous tissue disorders (AEs by primary system organ class)", "setting": "patients with CSU; [2]", "value": 16.9, "unit": "%"}, {"measurement": "IC50", "setting": "PBMC-derived mast cells", "value": 5.7, "unit": "nM"}]}
